Data taken from PMC10148601 (Analytica Chimica Acta, 2023).
“Also recorded” adds a separate entry of the source. Bridge positions count the residues as written; N and C are the ends. Ends that are not written are not given here.

How the values were obtained:
[1] = biological target: T1, SARS-CoV-2 NP (Severe acute respiratory syndrome coronavirus 2, UniProt P0DTC9)
[2] = biological target: T1, SARS-CoV-2 NP; remark: listed apart in the source
[3] = test system: SARS-CoV-2 NP versus SARS-CoV NP, MERS-CoV NP, HCoV-OC43 NP, SARS-CoV-2 S1, S-RBD, MERS-CoV S1, VEGF165, HSA, AFP, CEA, BSA; format: binding; conditions: n = 3
[4] = biological target: T1, SARS-CoV-2 NP; remark: listed apart in the source

| Sequence | binding to SARS-CoV-2 NP (positive clone) [1] | relative affinity for NP [1] | Frequency among sequenced phage clones [2] | specificity of binding [3] | binding specificity and affinity in words [4] |
| --- | --- | --- | --- | --- | --- |
| ACGTKPTKFC (disulfide 2-10 (inferred)) [N1] | have the ability to bind to SARS-CoV-2 NP with a significant difference compared to the control (P < 0.001) | may have higher affinity for NP than the other clones | 6/26 | specifically recognizes SARS-CoV-2 NP; also recorded: binds specifically to SARS-CoV-2 NP; also recorded: has the best specificity |  |
| ACGTKPTKFCGGGGGS (disulfide 2-10 (inferred)) [peptide probe N1] |  |  |  |  | binds to SARS-CoV-2 NP with good specificity and high affinity |
| ACLKTYWYNC (disulfide 2-10 (inferred)) [N5] | have the ability to bind to SARS-CoV-2 NP with a significant difference compared to the control (P < 0.001) | may have higher affinity for NP than the other clones | 2/26 | can bind to either MERS-CoV NP, SARS-CoV NP, or HCoV-OC43 NP; also recorded: limited selectivity |  |
| ACTPRSANYC (disulfide 2-10 (inferred)) [N4] |  |  | 3/26 | can bind to either MERS-CoV NP, SARS-CoV NP, or HCoV-OC43 NP; also recorded: limited selectivity |  |
